Legend:
[1] = target: T1, Alpha-1A adrenergic receptor (Rattus norvegicus, UniProt P43140); test: DRUGMATRIX: Alpha-1A adrenergic receptor radioligand binding (ligand: prazosin); assay type: cell membranes, Wistar, Submaxillary gland, Membrane; conditions: Not Active = under 50% inhibition at 10 µM
T1 sequence (P43140 whole entry): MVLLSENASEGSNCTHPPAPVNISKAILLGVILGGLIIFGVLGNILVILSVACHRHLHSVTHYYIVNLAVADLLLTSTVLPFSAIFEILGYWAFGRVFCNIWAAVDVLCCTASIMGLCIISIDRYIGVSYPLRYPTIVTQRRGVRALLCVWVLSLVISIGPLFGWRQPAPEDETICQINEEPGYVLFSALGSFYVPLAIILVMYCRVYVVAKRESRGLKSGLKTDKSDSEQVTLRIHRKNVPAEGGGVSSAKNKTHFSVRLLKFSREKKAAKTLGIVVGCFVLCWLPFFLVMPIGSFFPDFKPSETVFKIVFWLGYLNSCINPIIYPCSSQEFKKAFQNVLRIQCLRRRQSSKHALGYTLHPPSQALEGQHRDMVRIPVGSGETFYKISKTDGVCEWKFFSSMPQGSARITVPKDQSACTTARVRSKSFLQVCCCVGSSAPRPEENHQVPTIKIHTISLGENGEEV

[2] = target: Aldo-keto reductase family 1 member B1 (Rattus norvegicus, UniProt P07943); test: biochemical; assay type: tissue-based, Lens of camera-type eye;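 further: inhibition of aldose reductase enzyme activity, measured with DL-glyceraldehyde as the substrate; in other assays of this panel Not Active means under 50% inhibition at 10 µM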
[3] = DRUGMATRIX: Atrial Natriuretic Factor (ANF) radioligand binding (ligand: [125I] ANF (rat)); assay type: cell membranes, Cavia porcellus, Dunkin-Hartley, Adrenal gland, Membrane; conditions: Not Active = under 50% inhibition at 10 µM
[4] = target: T2, C-C chemokine receptor type 4 (Homo sapiens, UniProt P51679); assay type: cell membranes, Membrane; conditions: chem-1; further: in other assays of this panel Not Active means under 50% inhibition at 10 µM
T2 sequence (P51679 whole entry): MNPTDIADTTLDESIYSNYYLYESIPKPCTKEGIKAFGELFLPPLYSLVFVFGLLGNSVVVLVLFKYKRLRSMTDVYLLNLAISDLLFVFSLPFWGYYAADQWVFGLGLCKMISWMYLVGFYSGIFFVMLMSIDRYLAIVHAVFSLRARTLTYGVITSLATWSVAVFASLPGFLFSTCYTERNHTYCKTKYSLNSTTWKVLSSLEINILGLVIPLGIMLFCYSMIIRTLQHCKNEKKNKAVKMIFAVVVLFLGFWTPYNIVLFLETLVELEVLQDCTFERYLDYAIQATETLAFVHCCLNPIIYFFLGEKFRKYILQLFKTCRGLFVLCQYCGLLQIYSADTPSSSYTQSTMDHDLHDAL

[5] = DRUGMATRIX: Glutamate, AMPA radioligand binding (ligand: [3H] AMPA); assay type: cell membranes, Rattus norvegicus, Wistar, Cerebral cortex, Membrane; conditions: Not Active = under 50% inhibition at 10 µM
[6] = DRUGMATRIX: Leukotriene, BLT (LTB4) radioligand binding (ligand: [3H]LTB4); assay type: cell membranes, Membrane; conditions: u-937; Not Active = under 50% inhibition at 10 µM
[7] = target: T3, Neuropeptide Y receptor type 1 (Homo sapiens, UniProt P25929); assay type: cell membranes, Membrane; conditions: sk-n-mc; further: in other assays of this panel Not Active means under 50% inhibition at 10 µM
T3 sequence (P25929 whole entry): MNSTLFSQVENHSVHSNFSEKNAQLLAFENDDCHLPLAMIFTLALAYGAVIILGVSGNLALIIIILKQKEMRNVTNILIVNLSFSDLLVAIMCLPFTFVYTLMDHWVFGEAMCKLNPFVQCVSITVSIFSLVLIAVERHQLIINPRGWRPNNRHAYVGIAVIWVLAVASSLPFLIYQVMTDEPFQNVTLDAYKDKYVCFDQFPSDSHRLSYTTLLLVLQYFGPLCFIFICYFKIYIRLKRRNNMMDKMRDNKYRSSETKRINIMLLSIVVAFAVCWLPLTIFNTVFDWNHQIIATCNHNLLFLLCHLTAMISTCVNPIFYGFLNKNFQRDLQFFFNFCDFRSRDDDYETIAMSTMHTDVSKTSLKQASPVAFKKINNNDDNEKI

[8] = DRUGMATRIX: Phorbol Ester radioligand binding (ligand: [3H] PDBu); assay type: cell membranes, Mus musculus, ICR, Brain, Membrane; conditions: Not Active = under 50% inhibition at 10 µM

O=C(O)Cc1ccc(-c2ccccc2)cc1 [FELBINAC]
Not Active: IC50 [1] | IC50 [2] | IC50 [3] | Ki [3] | IC50 [4] | IC50 [5] | Ki [5] | IC50 [6] | Ki [6] | IC50 [7] | IC50 [8] | Ki [8]

CCOC(=O)C1=C(C)NC(C)=C(C(=O)OC)C1c1cccc(Cl)c1Cl (stereo not drawn) [FELODIPINE]
Not Active: IC50 [1] | IC50 [2] | IC50 [3] | Ki [3] | IC50 [4] | IC50 [5] | Ki [5] | IC50 [6] | Ki [6] | IC50 [7] | IC50 [8] | Ki [8]

CC(C(=O)O)c1ccc(-c2ccccc2)c(F)c1 (stereo not drawn) [FLURBIPROFEN]
Not Active: IC50 [1] | IC50 [2] | IC50 [3] | Ki [3] | IC50 [4] | IC50 [5] | Ki [5] | IC50 [6] | Ki [6] | IC50 [7] | IC50 [8] | Ki [8]

Cc1cn[nH]c1 [FOMEPIZOLE]
Not Active: IC50 [1] | IC50 [2] | IC50 [3] | Ki [3] | IC50 [4] | IC50 [5] | Ki [5] | IC50 [6] | Ki [6] | IC50 [7] | IC50 [8] | Ki [8]

NC[C@@H]1O[C@H](O[C@H]2[C@@H](O)[C@H](O[C@@H]3[C@@H](O)[C@H](N)C[C@H](N)[C@H]3O[C@H]3O[C@H](CN)[C@@H](O)[C@H](O)[C@H]3N)O[C@@H]2CO)[C@H](N)[C@@H](O)[C@@H]1O [FRAMYCETIN]
Not Active: IC50 [1] | IC50 [2] | IC50 [3] | Ki [3] | IC50 [4] | IC50 [5] | Ki [5] | IC50 [6] | Ki [6] | IC50 [7] | IC50 [8] | Ki [8]

C[C@H]([C@](O)(Cn1cncn1)c1ccc(F)cc1F)S(C)(=O)=O [GENACONAZOLE]
Not Active: IC50 [1] | IC50 [2] | IC50 [3] | Ki [3] | IC50 [4] | IC50 [5] | Ki [5] | IC50 [6] | Ki [6] | IC50 [7] | IC50 [8] | Ki [8]

Cc1cnc(C(=O)NCCc2ccc(S(=O)(=O)NC(=O)NC3CCCCC3)cc2)cn1 [GLIPIZIDE]
Not Active: IC50 [1] | IC50 [2] | IC50 [3] | Ki [3] | IC50 [4] | IC50 [5] | Ki [5] | IC50 [6] | Ki [6] | IC50 [7] | IC50 [8] | Ki [8]

Cc1c(F)c(N2CCNC(C)C2)cc2c1c(=O)c(C(=O)O)cn2C1CC1 (stereo not drawn) [GREPAFLOXACIN]
Not Active: IC50 [1] | IC50 [2] | IC50 [3] | Ki [3] | IC50 [4] | IC50 [5] | Ki [5] | IC50 [6] | Ki [6] | IC50 [7] | IC50 [8] | Ki [8]

COc1ccccc1OCC(O)CO (stereo not drawn) [GUAIFENESIN]
Not Active: IC50 [1] | IC50 [2] | IC50 [3] | Ki [3] | IC50 [4] | IC50 [5] | Ki [5] | IC50 [6] | Ki [6] | IC50 [7] | IC50 [8] | Ki [8]
